# Assay results taken from article PMC7321065, “Discovery of New Schiff Bases Tethered Pyrazole Moiety: Design, Synthesis, Biological Evaluation, and Molecular Docking Study as Dual Targeting DHFR/DNA Gyrase Inhibitors with Immunomodulatory Activity” (Molecules, 2020).
# Like-named read-outs stand apart in the source and are kept apart here.
# Legend:
# [1] = test system: E. coli ATCC BAA-196; assay: Inhibition zone against MDRB, agar plate diffusion; format: cell-based
# [2] = test system: S. aureus ATCC 33591; assay: Inhibition zone against MDRB, agar plate diffusion; format: cell-based
# [3] = test system: E. coli ATCC BAA-196; assay: MIC/MBC against MDRB, paper disk diffusion; format: cell-based; conditions: Escherichia coli, ATCCBAA196
# From the text: (§1) The inhibition zone (IZ, mm±standard deviation) of pyrazole Schiff bases ( 6b, 7b, 7c, 8a, 8d and 9b) was
# (§2) measurement according to the agar plate diffusion method against a panel of multidrug-resistant bacteria
# (MDRB). […]
# [4] = test system: S. aureus ATCC 33591; assay: MIC/MBC against MDRB, paper disk diffusion; format: cell-based; conditions: Staphylococcus aureus, ATCC33591
# From the text: as §1, §2
# (MDRB). […]
# [5] = test system: P. aeruginosa ATCC BAA-2111; assay: MIC/MBC against MDRB, paper disk diffusion; format: cell-based; conditions: Pseudomonas aeruginosa, ATCCBAA2111
# From the text: as §1, §2
# (MDRB). […]
# [6] = test system: S. aureus ATCC 43300 (MRSA); assay: MIC/MBC against MDRB, paper disk diffusion; format: cell-based; conditions: Staphylococcus aureus
# From the text: as §1, §2
# (MDRB). […]
# [7] = test system: P. aeruginosa ATCC BAA-2111; assay: Inhibition zone against MDRB, agar plate diffusion; format: cell-based
# [8] = test system: S. aureus ATCC 43300 (MRSA); assay: Inhibition zone against MDRB, agar plate diffusion; format: cell-based
# [9] = test system: Enterococcus faecalis; assay: Inhibition zone, agar plate diffusion; format: cell-based; conditions: read-out: Inhibition zone (IZ)
# Method: (§3) Antimicrobial activities of the newly formed Schiff bases (6a–d, 7a–d, 8a–d, and 9a–d) and reference drugs were evaluated against three Gram-positive, three Gram-negative, and two fungi strain at Al-Azhar University, Cairo, Egypt. The inhibition zones (IZ, in mm ± standard deviation) and the minimal inhibitory concentration (MIC) (μg/mL) were determined by the conventional paper disk diffusion method.
# (§4) In Vitro Antimicrobial Activities
# (§5) The antimicrobial activities inhibition zone (IZ, mm±standard deviation) of pyrazole Schiff bases ( 6a-d , 7a-d, 8a-d and 9a-d ) was measurement according to the agar plate diffusion method. Briefly, 100 µl of the […]
# (§6) […] of each sample (at 0.5 mg/mL) was added to each well (10 mm diameter holes cut in the agar gel). The plates were incubated for 24 h at 37 °C (for bacteria and yeast) and for 72 h at 27 °C (for filamentous fungi), each test was repeated three times. After incubation, the microorganism's growth was observed. […]
# (§7) drugs while Amphotericin B was used as standard antifungal drug. The resulting inhibition zone diameters were measured in millimeters and used as criterion for the antimicrobial activity. Solvent controls (DMSO) were included in every experiment as negative controls. DMSO was used for dissolving […]
# (§8) the tested microorganisms. […]
# [10] = test system: Bacillus subtilis; assay: Inhibition zone, agar plate diffusion; format: cell-based; conditions: read-out: Inhibition zone (IZ)
# Method: as §3, §4, §5, §6, §7, §8
# [11] = test system: Pseudomonas aeruginosa; assay: Inhibition zone, agar plate diffusion; format: cell-based; conditions: read-out: Inhibition zone (IZ)
# Method: as §3, §4, §5, §6, §7, §8
# [12] = test system: Escherichia coli; assay: Inhibition zone, agar plate diffusion; format: cell-based; conditions: read-out: Inhibition zone (IZ)
# Method: as §3, §4, §5, §6, §7, §8
# [13] = test system: hepatocellular carcinoma cell line (HepG2); assay: Antiproliferative activity, MTT assay; format: cell-based, human; conditions: Homo sapiens, HepG2, 48 h, read-out: IC50 HepG-2
# Method: (§9) 3-[4, 5-Dimethyl-2-thiazolyl)-2, 5-diphenyl-2 H-tetrazolium bromide (MTT) protocol is based on the cleavage of the tetrazolium salt by mitochondrial dehydrogenases in viable cells. Cells were dispensed in a 96 well sterile microplate (5 x 10^4 cells/well), and incubated at 37 °C with series of different concentrations, in DMSO, of each tested compound or Doxorubicin ® (positive control) for 48 h in a serum free medium prior to the MTT assay. After incubation, media were carefully removed, 40 µL of MTT (2.5 mg/mL) were added to each well and then incubated for an additional 4 h. The purple formazan dye crystals were solubilized by the addition of 200 µL of DMSO. The absorbance was measured at 590 nm using a SpectraMax® Paradigm® Multi-Mode microplate reader. The relative cell viability was expressed as the mean percentage of viable cells compared to the untreated control cells.
# (§10) All experiments were conducted in triplicate and repeated in three different days. All the values were represented as mean ± SD. IC 50s were determined by probit analysis using SPSS software program (SPSS
# [14] = test system: mammary gland breast cancer cell line (MCF-7); assay: Antiproliferative activity, MTT assay; format: cell-based, human; conditions: Homo sapiens, MCF7, 48 h, read-out: IC50 MCF-7
# Method: as §9, §10
# [15] = test system: Fusarium oxysporum; assay: MIC/MFC, paper disk diffusion; format: cell-based; conditions: Fusarium oxysporum
# Method: as §3
# (§11) In Vitro Antimicrobial Activities […]
# (§12) DMSO was used for dissolving […]
# (§13) the tested microorganisms.
# (§14) The minimum inhibitory concentration (MIC), the minimum bactericidal concentration (MBC, µg/ml) and […]
# (§15) and 9b) were determined by the conventional technique termed paper disk diffusion, by applying paper […]
# (§16) Bacteria were grown on nutrient agar medium, while fungi and yeast were grown on Sabouraud agar medium. The purified streptomycin was dissolved in […]
# (§17) inoculated with test organism. Growth inhibition was examined after 24 hr. from incubation at 37 °C for bacteria and after 72 hr. incubation at 27 °C for fungi and yeast. Each test was repeated three times. MIC was expressed as the lowest concentration inhibiting test organism’s growth. […]
# [16] = test system: Candida albicans; assay: MIC/MFC, paper disk diffusion; format: cell-based; conditions: Candida albicans
# Method: as §3, §11, §12, §13, §14, §15, §16, §17
# [17] = test system: Staphylococcus aureus; assay: MIC/MBC, paper disk diffusion; format: cell-based; conditions: Staphylococcus aureus
# Method: as §3, §11, §12, §13, §14, §15, §16, §17
# [18] = test system: Enterococcus faecalis; assay: MIC/MBC, paper disk diffusion; format: cell-based
# Method: as §3, §11, §12, §13, §14, §15, §16, §17
# [19] = test system: Bacillus subtilis; assay: MIC/MBC, paper disk diffusion; format: cell-based
# Method: as §3, §11, §12, §13, §14, §15, §16, §17
# [20] = test system: Salmonella typhi; assay: MIC/MBC, paper disk diffusion; format: cell-based; conditions: Salmonella enterica, S. typhi
# Method: as §3, §11, §12, §13, §14, §15, §16, §17
# [21] = test system: Pseudomonas aeruginosa; assay: MIC/MBC, paper disk diffusion; format: cell-based; conditions: Pseudomonas aeruginosa
# Method: as §3, §11, §12, §13, §14, §15, §16, §17
# [22] = test system: Escherichia coli; assay: MIC/MBC, paper disk diffusion; format: cell-based; conditions: Escherichia coli
# Method: as §3, §11, §12, §13, §14, §15, §16, §17
# [23] = test system: Staphylococcus aureus; assay: Inhibition zone, agar plate diffusion; format: cell-based; conditions: read-out: Inhibition zone (IZ)
# Method: as §3, §4, §5, §6, §7, §8
# (§18) Bacteria were grown on nutrient agar medium, while fungi and yeast were grown on Sabouraud agar medium. […]
# [24] = test system: Fusarium oxysporum; assay: Inhibition zone, agar plate diffusion; format: cell-based; conditions: read-out: Inhibition zone (IZ)
# Method: as §3, §4, §5, §6, §7, §8, §18
# [25] = test system: Salmonella typhi; assay: Inhibition zone, agar plate diffusion; format: cell-based; conditions: Salmonella enterica, St, mm ± standard deviation, sample at 0.5 mg/mL, read-out: Inhibition zone (IZ)
# Method: as §3, §4, §5, §6, §7, §8, §18
# [26] = test system: Candida albicans; assay: Inhibition zone, agar plate diffusion; format: cell-based; conditions: read-out: Inhibition zone (IZ)
# Method: as §3, §4, §5, §6, §7, §8, §18
smiles,measurement,setting,value
"CCn1cc(C(=O)O)c(=O)c2cc(F)c(N3CCNCC3)cc21 [Norfloxacin, reference compound]",Mean Diameter of Inhibition Zone against MDRB,[1],27 ± 0.98 mm
same,Mean Diameter of Inhibition Zone against MDRB,[2],26 ± 0.5 mm
same,MBC,"[3]; E. coli ATCC BAA-196, read-out: MBC",3.53 µg/mL
same,MIC,"[3]; E. coli ATCC BAA-196, read-out: MIC",1.57 µg/mL
same,MBC,"[4]; S. aureus ATCC 33591, read-out: MBC",1.56 µg/mL
same,MIC,"[4]; S. aureus ATCC 33591, read-out: MIC",0.78 µg/mL
same,MBC,"[5]; P. aeruginosa ATCC BAA-2111, read-out: MBC",4.69 µg/mL
same,MIC,"[5]; P. aeruginosa ATCC BAA-2111, read-out: MIC",3.13 µg/mL
same,MBC,"[6]; S. aureus ATCC 43300, read-out: MBC",2.81 µg/mL
same,MIC,"[6]; S. aureus ATCC 43300, read-out: MIC",1.25 µg/mL
same,Mean Diameter of Inhibition Zone against MDRB,[7],24 ± 0.47 mm
same,Mean Diameter of Inhibition Zone against MDRB,[8],25 ± 0.50 mm
"COc1ccc(Nc2n[nH]c(N=Cc3ccc(N4CCCCC4)cc3)c2C(=O)Nc2ccc(Cl)cc2)cc1 [8d, N-(p-Chlorophenyl)-3-(p-methoxyphenylamino)-5-(4-(piperidin-1-yl)benzylideneamino)-1H-pyrazole-4-carboxamide]",Mean Diameter of Inhibition Zone against MDRB,[1],16 ± 0.11 mm
same,Mean Diameter of Inhibition Zone against MDRB,[2],21 ± 0.23 mm
same,zone of inhibition at 500 µg/mL,[9],23 ± 0.65 mm
same,zone of inhibition at 500 µg/mL,[10],24 ± 0.5 mm
same,zone of inhibition at 500 µg/mL,[11],21 ± 0.2 mm
same,zone of inhibition at 500 µg/mL,[12],26 ± 0.11 mm
same,MBC,[3],31.2 µg/mL
same,MIC,[3],15.6 µg/mL
same,MBC,[4],7.41 µg/mL
same,MIC,[4],3.9 µg/mL
same,MBC,[5],11.9 µg/mL
same,MIC,[5],6.25 µg/mL
same,MBC,[6],31.2 µg/mL
same,MIC,[6],15.6 µg/mL
same,IC50,[13],2.63 ± 0.44 µM
same,IC50,[14],3.69 ± 0.22 µM
same,MFC,[15],56.2 µg/mL
same,MIC,[15],31.2 µg/mL
same,MFC,[16],17.6 µg/mL
same,MIC,[16],9.25 µg/mL
same,Mean Diameter of Inhibition Zone against MDRB,[7],25 ± 0.99 mm
same,MIC,[17],7.81 µg/mL
same,MBC,[17]; S. aureus,15.6 µg/mL
same,MIC,[18],15.6 µg/mL
same,MBC,[18]; E. faecalis,31.2 µg/mL
same,Fold more potent than Tetracycline (MIC),[19]; B. subtilis,8 fold
same,MIC,[19]; Bacillus subtilis,3.9 µg/mL
same,MBC,"[19]; Bacillus subtilis, B. subtilis",6.63 µg/mL
same,MIC,[20],18.5 µg/mL
same,MBC,[20]; read-out: MBC,36.5 µg/mL
same,MIC,[21],27.8 µg/mL
same,MBC,[21]; P. aeruginosa,55.5 µg/mL
same,MIC,[22],7.81 µg/mL
same,MBC,[22]; E. coli,15.6 µg/mL
same,zone of inhibition at 500 µg/mL,[23],25 ± 0.77 mm
same,zone of inhibition at 500 µg/mL,[24],21 ± 0.16 mm
same,zone of inhibition at 500 µg/mL,[25],23 ± 0.65 mm
same,zone of inhibition at 500 µg/mL,[26],25 ± 0.33 mm
same,Mean Diameter of Inhibition Zone against MDRB,[8],18 ± 0.5 mm
